Experimental findings from paper PMC5485984, “Sugar-Binding Profiles of Chitin-Binding Lectins from the Hevein Family: A Comprehensive Study” (International Journal of Molecular Sciences, 2017) are described below.

This assay deals with T1, DSA (Datura stramonium agglutinin) (Datura stramonium, UniProt A0A089ZWN7).
T1 construct: gene dsa-b; four hevein domains and extensin-like domain
T1 sequence (A0A089ZWN7 24-279): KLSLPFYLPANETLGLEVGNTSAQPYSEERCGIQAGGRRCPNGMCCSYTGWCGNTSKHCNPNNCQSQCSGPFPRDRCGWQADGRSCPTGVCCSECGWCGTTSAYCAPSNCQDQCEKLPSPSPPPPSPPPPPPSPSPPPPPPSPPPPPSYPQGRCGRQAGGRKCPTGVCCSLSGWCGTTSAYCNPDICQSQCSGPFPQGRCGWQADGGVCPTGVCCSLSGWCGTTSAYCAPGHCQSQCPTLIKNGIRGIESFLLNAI
Details: Frontal affinity chromatography, pyridylaminated oligosaccharides on Sepharose-immobilized lectin; Kd = Bt/(V-V0). To be noted: binder. As to the method:
For systematic comparison of sugar-binding properties of the six chitin-binding lectins, FAC was carried out with a previously established procedure. Briefly, to determine the Kd values of each of the six chitin-binding lectins for 124 PA-oligosaccharides, each of the lectins was immobilized on activated Sepharose at several concentrations: one for concentration-dependent analysis to determine the effective ligand content Bt (expressed in nmol) of a standard column, from which Kd values for a panel of PA-oligosaccharides were determined according to a simplified basic equation of FAC, Kd = Bt/(V − V0). The other(s) are supplementary to cover a wide range of possible Kd values, which is in direct relation to the observed value of V − V0 (for more detail, see Materials and Methods). […] It is often useful to discuss lectin-oligosaccharide interactions in terms of an affinity constant, Ka (1/Kd), instead of Kd. […] This was applied in the cases of DSA (6.0 and 1.5 mg/mL), UDA (6.0, 3.0, 1.0, and 0.3 mg/mL), WGA (7.0, 2.0, and 0.5 mg/mL), and LEL (6.0 and 0.5 mg/mL).

Molecules are shown by their SMILES.

As to `OC[C@@H](O)[C@@H](O[C@@H]1O[C@H](CO)[C@H](O)[C@H](O)[C@H]1O)[C@H](O)[C@@H](O)CNc1ccccn1` [compound 701, 701], the Kd (usually a measure of binding affinity in units of concentration) is 31 µM. `CC(=O)N[C@@H](CNc1ccccn1)[C@@H](O)[C@H](O[C@@H]1O[C@H](CO)[C@H](O)[C@H](O)[C@H]1O)[C@H](O)CO` [compound 901, 901] yielded a Kd of 87 µM.
